Like-named read-outs stand apart in the source and are kept apart here.
Tests used:
[1] = target: α-glucosidase; experiment: α-Glucosidase inhibitory assay; format: biochemical; settings: in vitro; standard acarbose; N.A * = Not active; read-out: α-Glucosidase IC50 (µM ±SEM)
Experimental: A procedure based on the previously reported procedure with minor modifications was used to determine the inhibitory capacity of the newly designed derivatives of benzothiazole-derived pyrazoline-based thiazole (1–17). For 20 min at 37 °C, […] in 100 mM of phosphate buffer (pH 6.8) for 20 min. The reaction mixture was then incubated for 1 h at 37 °C with 250 mL of 4-nitrophenyl-b-D-glucopyranoside solution and 250 mL of 1% starch dissolved in 100 mM of phosphate buffer (pH 6.8), respectively. Following this, the reaction mixture was heated for 10 min with 1.0 mL of 3,5-dinitrosalicylic acid colouring reagent. The absorbance of the final reaction mixture was determined for α-glucosidase at 405 nm. To correct the absorbance, a blank was prepared. […] A percentage of the inhibitory activity was calculated using a control sample without the inhibitors.

[2] = target: urease (Canavalia ensiformis, UniProt P07374); experiment: biochemical
Sequence of urease (P07374 whole entry, looked up): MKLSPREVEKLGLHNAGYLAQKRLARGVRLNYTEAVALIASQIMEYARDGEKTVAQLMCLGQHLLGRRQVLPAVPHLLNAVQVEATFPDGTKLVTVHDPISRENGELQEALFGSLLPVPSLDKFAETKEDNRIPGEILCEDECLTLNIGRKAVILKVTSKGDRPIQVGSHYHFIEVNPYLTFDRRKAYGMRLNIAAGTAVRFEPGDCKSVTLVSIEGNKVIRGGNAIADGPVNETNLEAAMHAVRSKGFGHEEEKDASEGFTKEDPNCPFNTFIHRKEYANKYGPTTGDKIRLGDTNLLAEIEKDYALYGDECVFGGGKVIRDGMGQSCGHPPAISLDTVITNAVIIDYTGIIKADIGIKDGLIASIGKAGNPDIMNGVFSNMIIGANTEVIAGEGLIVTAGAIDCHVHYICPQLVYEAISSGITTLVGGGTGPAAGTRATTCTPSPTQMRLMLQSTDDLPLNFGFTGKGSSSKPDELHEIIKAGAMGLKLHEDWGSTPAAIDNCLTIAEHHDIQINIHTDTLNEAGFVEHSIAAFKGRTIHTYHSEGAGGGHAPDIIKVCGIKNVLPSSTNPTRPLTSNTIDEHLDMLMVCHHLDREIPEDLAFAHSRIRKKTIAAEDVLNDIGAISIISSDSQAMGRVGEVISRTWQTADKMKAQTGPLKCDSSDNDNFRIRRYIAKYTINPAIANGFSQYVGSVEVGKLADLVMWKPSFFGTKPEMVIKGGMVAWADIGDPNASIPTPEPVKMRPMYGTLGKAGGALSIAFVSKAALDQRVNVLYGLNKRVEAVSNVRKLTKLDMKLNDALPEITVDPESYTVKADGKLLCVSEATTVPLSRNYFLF
Experimental: During the experiment, 55 L of buffer solution containing 100 mM of urea was combined with 25 L of enzyme solution to prepare reaction mixtures. A volume of 5 L containing 1 mM concentrations of recently produced compounds was then added to these mixtures. After 15 min of incubation at 30 °C, the reactions were allowed to occur in 96-well plates. The detection of ammonia generation by urease was carried out by using the Indophenol technique. A phenol reagent containing 1% w/v phenol and 0.005% w/v sodium nitroprusside was added to each well along with 70 µL of an alkali reagent containing 0.5% w/v NaOH and 0.1% active chloride NaOCl. Utilizing a microplate reader manufactured by Molecular Device in the United States, the increased absorbance was measured at 630 nm after another 50 min. In triplicate, the aforementioned procedures were performed using a constant end volume of […]. The final data, representing the rate at which the absorbance changed per minute, were analysed with the SoftMax Pro program by Molecular Device, New York, NY, USA. In alkaline conditions with a pH of 8.2, the experiments were conducted using 0.01 M K2HPO4·3H2O, 1 mM EDTA, and 0.01 M LiCl. A conventional inhibitor of urease, thiourea, was used in this study to determine the percentage of inhibition.

SMILES	IC50 [1] [µM]	melting point [°C]	IC50 [2] [µM]	IC50 ([2]; in vitro, standard thiourea, N.A * = Not active, read-out: Urease IC50 (µM ± SEM)) [µM]
Oc1cc(F)ccc1-c1csc(N2N=C(c3cc(Cl)cnc3Cl)CC2c2nc3ccccc3s2)n1 (stereo not shown) [Compound 7, 2-(2-(5-(Benzo[d]thiazol-2-yl)-3-(2,5-dichloropyridin-3-yl)-4,5-dihydro-1H-pyrazol-1-yl)thiazol-4-yl)-5-fluorophenol]	3.2 ± 0.1	228 to 229	19.2 ± 0.1	
Clc1cnc(Cl)c(C2=NN(c3nc(-c4ccc(OCc5ccccc5)cc4)cs3)C(c3nc4ccccc4s3)C2)c1 (stereo not shown) [Compound 13, 2-(1-(4-(4-(Benzyloxy)phenyl)thiazol-2-yl)-3-(2,5-dichloropyridin-3-yl)-4,5-dihydro-1H-pyrazol-5-yl)benzo[d]thiazole]		242 to 243		
O=[N+]([O-])c1cc(Cl)ccc1-c1csc(N2N=C(c3cc(Cl)cnc3Cl)CC2c2nc3ccccc3s2)n1 (stereo not shown) [Compound 9, 2-(1-(4-(4-Chloro-2-nitrophenyl)thiazol-2-yl)-3-(2,5-dichloropyridin-3-yl)-4,5-dihydro-1H-pyrazol-5-yl)benzo[d]thiazole]	4.4 ± 0.3	230 to 231	29.4 ± 0.1	
Fc1ccc(-c2csc(N3N=C(c4cc(Cl)cnc4Cl)CC3c3nc4ccccc4s3)n2)cc1 (stereo not shown) [Compound 12, 2-(3-(2,5-Dichloropyridin-3-yl)-1-(4-(4-fluorophenyl)thiazol-2-yl)-4,5-dihydro-1H-pyrazol-5-yl)benzo[d]thiazole]	3.5 ± 0.1	226 to 227	22.3 ± 0.8	
Oc1cc(Cl)cc(Cl)c1-c1csc(N2N=C(c3cc(Cl)cnc3Cl)CC2c2nc3ccccc3s2)n1 (stereo not shown) [Compound 14, 2-(2-(5-(Benzo[d]thiazol-2-yl)-3-(2,5-dichloropyridin-3-yl)-4,5-dihydro-1H-pyrazol-1-yl)thiazol-4-yl)-3,5-dichlorophenol]	3.4 ± 0.1	238 to 239	21.8 ± 2.9	
NC(N)=S [Thiourea, thiourea, reference compound]				31.4 ± 2.5
Fc1ccccc1-c1csc(N2N=C(c3cc(Cl)cnc3Cl)CC2c2nc3ccccc3s2)n1 (stereo not shown) [Compound 11, 2-(3-(2,5-Dichloropyridin-3-yl)-1-(4-(2-fluorophenyl)thiazol-2-yl)-4,5-dihydro-1H-pyrazol-5-yl)benzo[d]thiazole]		221 to 222		
CN(C)c1ccc(-c2csc(N3N=C(c4cc(Cl)cnc4Cl)CC3c3nc4ccccc4s3)n2)cc1 (stereo not shown) [Compound 8, 4-(2-(5-(Benzo[d]thiazol-2-yl)-3-(2,5-dichloropyridin-3-yl)-4,5-dihydro-1H-pyrazol-1-yl)thiazol-4-yl)-N,N-dimethylaniline]		231 to 232	39.2 ± 0.6	
Cc1ccc(-c2csc(N3N=C(c4cc(Cl)cnc4Cl)CC3c3nc4ccccc4s3)n2)cc1 (stereo not shown) [Compound 3, 2-(3-(2,5-Dichloropyridin-3-yl)-1-(4-(p-tolyl)thiazol-2-yl)-4,5-dihydro-1H-pyrazol-5-yl)benzo[d]thiazole]	7.5 ± 0.1	227 to 228	33.2 ± 3.8	
COc1ccc(OC)c(-c2csc(N3N=C(c4cc(Cl)cnc4Cl)CC3c3nc4ccccc4s3)n2)c1 (stereo not shown) [Compound 10, 2-(3-(2,5-Dichloropyridin-3-yl)-1-(4-(2,5-dimethoxyphenyl)thiazol-2-yl)-4,5-dihydro-1H-pyrazol-5-yl)benzo[d]thiazole]	8.9 ± 0.2	234 to 235	33.7 ± 0.1	
O=[N+]([O-])c1ccc(-c2csc(N3N=C(c4cc(Cl)cnc4Cl)CC3c3nc4ccccc4s3)n2)cc1 (stereo not shown) [Compound 4, 2-(3-(2,5-Dichloropyridin-3-yl)-1-(4-(4-nitrophenyl)thiazol-2-yl)-4,5-dihydro-1H-pyrazol-5-yl)benzo[d]thiazole]	4.1 ± 0.3	232 to 233	23.3 ± 2.4	
FC(F)(F)c1ccc(-c2csc(N3N=C(c4cc(Cl)cnc4Cl)CC3c3nc4ccccc4s3)n2)cc1 (stereo not shown) [Compound 6, 2-(3-(2,5-Dichloropyridin-3-yl)-1-(4-(4-(trifluoromethyl)phenyl)thiazol-2-yl)-4,5-dihydro-1H-pyrazol-5-yl)benzo[d]thiazole]	2.5 ± 0.3	225 to 226	14.3 ± 3.9	
Clc1cnc(Cl)c(C2=NN(c3nc(-c4ccc5ccccc5c4)cs3)C(c3nc4ccccc4s3)C2)c1 (stereo not shown) [Compound 16, 2-(3-(2,5-Dichloropyridin-3-yl)-1-(4-(naphthalen-2-yl)thiazol-2-yl)-4,5-dihydro-1H-pyrazol-5-yl)benzo[d]thiazole]		243 to 244		
O=[N+]([O-])c1cc(Br)ccc1-c1csc(N2N=C(c3cc(Cl)cnc3Cl)CC2c2nc3ccccc3s2)n1 (stereo not shown) [Compound 1, 2-(1-(4-(4-Bromo-2-nitrophenyl)thiazol-2-yl)-3-(2,5-dichloropyridin-3-yl)-4,5-dihydro-1H-pyrazol-5-yl)benzo[d]thiazole]	13.1 ± 0.4	233 to 234	41.5 ± 1.7	
Cc1ccc(C)c(-c2csc(N3N=C(c4cc(Cl)cnc4Cl)CC3c3nc4ccccc4s3)n2)c1 (stereo not shown) [Compound 2, 2-(3-(2,5-Dichloropyridin-3-yl)-1-(4-(2,5-dimethylphenyl)thiazol-2-yl)-4,5-dihydro-1H-pyrazol-5-yl)benzo[d]thiazole]	14.2 ± 0.1	219 to 220	37.2 ± 1.9	
Clc1cnc(Cl)c(C2=NN(c3nc(-c4cccc(Cl)c4Cl)cs3)C(c3nc4ccccc4s3)C2)c1 (stereo not shown) [Compound 17, 2-(1-(4-(2,3-Dichlorophenyl)thiazol-2-yl)-3-(2,5-dichloropyridin-3-yl)-4,5-dihydro-1H-pyrazol-5-yl)benzo[d]thiazole]	6.8 ± 0.2	236 to 237	31.3 ± 0.4	
Cc1cc(-c2csc(N3N=C(c4cc(Cl)cnc4Cl)CC3c3nc4ccccc4s3)n2)cc(C)c1Br (stereo not shown) [Compound 15, 2-(1-(4-(4-Bromo-3,5-dimethylphenyl)thiazol-2-yl)-3-(2,5-dichloropyridin-3-yl)-4,5-dihydro-1H-pyrazol-5-yl)benzo[d]thiazole]		221 to 222		
O=[N+]([O-])c1ccccc1-c1csc(N2N=C(c3cc(Cl)cnc3Cl)CC2c2nc3ccccc3s2)n1 (stereo not shown) [Compound 5, 2-(3-(2,5-Dichloropyridin-3-yl)-1-(4-(2-nitrophenyl)thiazol-2-yl)-4,5-dihydro-1H-pyrazol-5-yl)benzo[d]thiazole]	6.7 ± 0.3	224 to 225	32.5 ± 2.1	
